Measured values: patent US6355659B1, “4-(4-Chlorophenyl)-1236-tetrahydro-1(1H-124-triazol-1-yl)butty)pyrideine and salts thereof; pharmaceutical compositions and method of treating psychoses utilizing same” (Laboratorios Del Dr. Esteve, S.A., priority 1994, dated 2002)
Structures can show the parent of a compound that is named as a salt. Where two headings read alike, the source gives them in different places.

Experiments:
[1] = test system: catalepsy; assay: Induction of catalepsy in rats; type: in vivo; conditions: s.c.
Description: The induction of catalepsy in rats [J. Robert et al., J. Pharmacol. Exp. Ther., 1986, 239, 124] is a parameter that is commonly employed for determining the ability of antipsychotics to induce extrapyramidal effects. The typical antipsychotics are those which, in spite of being very powerful in specific tests of antipsychotic activity, induce extrapyramidal effects, and this is detected in the catalepsy test. The best known of the typical antipsychotics is haloperidol, whereas the best known of the atypical antipsychotics is clozapine.

[2] = test system: protein c-fos; assay: Induction of the protein c-fos in various brain areas in the rat (Western blot); type: in vivo; conditions: sc; for activity at 30 mg/kg: rat, acute treatment, 30 mg/kg s.c.
Description: Induction of the Protein c-fos in Various Brain Areas in the Rat
Acute treatment with various antipsychotics is characterized by the induction of the protein c-fos, owing to the rapid induction off the c-fos gene in various areas of the limbic and extrapyramidal systems [M. Dragunow et al., Neuroscience, 1990, 37, 287-294; J. C. Miller, J. Neurochem., 1990, 54, 1453-1455; A. Y. Deutch et al., Mol. Cell. Neurosci., 1992, 3, 332-341; T. V. Nguyen et al., Proc. Natl. Acad. Sci. USA, 1992, 89, 4270-4274; G. S. Robertson and H. C. Fibinger, Neuroscience, 1992, 46, 315-328]. The patterns of induction of the protein depend on whether the antipsychotic is typical or atypical [G. S. Robertson et al., J. Pharmacol. Exp. Ther., 1994, 271, 1058-1066; G. S. Robertson and H. C. Fibinger, Neuroscience, 1992, 46, 315-328]. These changes in expression of c-fos can be investigated by extraction of the proteins from the brain areas of interest, and analysis of the levels by electrophoresis (Western blot).

[3] = target: T1, 5-HT1A (Homo sapiens, UniProt P08908); assay: 5-HT1A receptor affinity; type: binding
T1 sequence (P08908 1-422): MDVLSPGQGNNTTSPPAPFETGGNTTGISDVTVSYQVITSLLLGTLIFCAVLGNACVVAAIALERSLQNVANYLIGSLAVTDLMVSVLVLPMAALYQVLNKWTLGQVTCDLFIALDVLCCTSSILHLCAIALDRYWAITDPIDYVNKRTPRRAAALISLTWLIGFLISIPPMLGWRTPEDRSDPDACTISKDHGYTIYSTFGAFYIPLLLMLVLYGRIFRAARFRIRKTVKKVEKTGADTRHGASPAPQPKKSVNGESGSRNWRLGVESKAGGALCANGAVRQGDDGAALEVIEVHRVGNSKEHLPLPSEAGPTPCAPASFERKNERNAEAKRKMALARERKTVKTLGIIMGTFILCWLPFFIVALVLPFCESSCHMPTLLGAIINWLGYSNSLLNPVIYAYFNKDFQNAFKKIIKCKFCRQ

[4] = target: SIGMA-1 (σ1) (Homo sapiens, UniProt Q99720); assay: Sigma-1 receptor affinity; type: binding; conditions: SIGMA-1 (σ1) receptor
Chain of SIGMA-1 (σ1) (Q99720 whole entry): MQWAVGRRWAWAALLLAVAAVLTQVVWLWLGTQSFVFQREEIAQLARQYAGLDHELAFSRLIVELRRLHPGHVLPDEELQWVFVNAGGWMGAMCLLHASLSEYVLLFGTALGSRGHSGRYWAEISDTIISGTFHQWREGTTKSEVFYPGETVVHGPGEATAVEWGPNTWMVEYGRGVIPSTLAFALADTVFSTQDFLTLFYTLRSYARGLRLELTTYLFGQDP

[5] = target: SIGMA-2 (σ2) (Homo sapiens, UniProt Q5BJF2); assay: Sigma-2 receptor affinity; type: binding; conditions: SIGMA-2 (σ2) receptor
Chain of SIGMA-2 (σ2) (Q5BJF2 whole entry): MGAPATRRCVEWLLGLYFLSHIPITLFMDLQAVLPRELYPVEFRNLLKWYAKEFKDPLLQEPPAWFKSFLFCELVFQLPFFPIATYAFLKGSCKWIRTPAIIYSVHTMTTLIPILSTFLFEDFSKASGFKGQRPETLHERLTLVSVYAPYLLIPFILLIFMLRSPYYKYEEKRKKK

Row | SMILES | Induction of catalepsy, DE-50 [1] | activity at 30 mg/kg ([2]; read-out: Fos immunoreactivity % change relative to control, Dorsolateral groove) | activity at 30 mg/kg ([2]; read-out: Fos immunoreactivity % change relative to control, Medial area of prefrontal cortex) | activity at 30 mg/kg ([2]; read-out: Fos immunoreactivity % change relative to control, Nucleus accumbens) | activity at 20 mg/kg ([2]; read-out: Fos immunoreactivity % change relative to control, Dorsolateral groove, rat, acute treatment, 20 mg/kg s.c., % of saline group) | activity at 20 mg/kg ([2]; read-out: Fos immunoreactivity % change relative to control, Medial area of prefrontal cortex, rat, acute treatment, 20 mg/kg s.c., % of saline group) | activity at 20 mg/kg ([2]; read-out: Fos immunoreactivity % change relative to control, Nucleus accumbens, rat, acute treatment, 20 mg/kg s.c., % of saline group) | Ki [3] | Ki [4] | Ki [5] | Induction of catalepsy, DE-50 ([1]; listed as haloperidol)
1 | CN1CCN(C2=Nc3cc(Cl)ccc3Nc3ccccc32)CC1 [Clozapine, clozapine] | Inactive up to 80 mg/kg | 110% | 134% | 118% |  |  |  |  |  |  | 
2 | Clc1ccc(C2=CCN(CCCCn3cncn3)CC2)cc1 [Example 2, 4-(4-chlorophenyl)-1,2,3,6-tetrahydro-1-[4-(1H-1,2,4-triazol-1-yl)butyl]pyridine hydrochloride] |  |  |  |  | 104% | 134% | 118% | 600 nM | 3.7 nM | 465 nM | 
3 | O=C(CCCN1CCC(O)(c2ccc(Cl)cc2)CC1)c1ccc(F)cc1 [Haloperidol, haloperidol] | DE-50 = 0.14 mg/kg, |  |  |  |  |  |  |  |  |  | 0.14 mg/kg
